Assay results from patent US10501479B2, “Benzenesulfonyl-asymmetric ureas and medical uses thereof” (HELSINN HEALTHCARE SA, priority 2016, dated 2019).
pEC50, pIC50: −log10 of the molar value. Where two headings read alike, the source gives them in different places.

Tests used:
[1] = Metabolic stability in human liver microsomes; type: in vitro ADME
How it was run: (§1)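 Depletion of test compound in NADPH-fortified liver microsomes (pH 7.4 phosphate buffer, 37 °C) is followed over 90 min. Remaining compound in quenched samples is quantified by LC-MS/MS against the time-zero level.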

[2] = target: T1, GHSR-1a (HEK293/GHSR1a cell line) (Homo sapiens, UniProt Q92847); test: Ghrelin antagonist potency (IC50) with calcium FLIPR assay, ghrelin 10 nM; type: cell-based
T1 construct: expressed in transfected cells; host or cells: HEK293/GHSR1a cell line
T1 sequence (Q92847 whole entry): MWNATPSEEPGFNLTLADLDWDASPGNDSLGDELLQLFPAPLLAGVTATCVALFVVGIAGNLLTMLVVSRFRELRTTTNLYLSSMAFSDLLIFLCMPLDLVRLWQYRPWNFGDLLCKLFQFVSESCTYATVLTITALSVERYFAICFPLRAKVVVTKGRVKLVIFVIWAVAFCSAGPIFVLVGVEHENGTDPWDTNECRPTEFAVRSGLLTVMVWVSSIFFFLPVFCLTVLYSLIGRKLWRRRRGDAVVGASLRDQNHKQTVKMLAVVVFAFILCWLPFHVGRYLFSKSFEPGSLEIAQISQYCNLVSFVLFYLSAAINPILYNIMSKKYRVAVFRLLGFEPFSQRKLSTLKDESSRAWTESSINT
How it was run: (§2)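 Potency values were estimated from dose-response curves of relative fluorescence, with calcium followed for 2 minutes after additions at t=20 sec. Agonism was tested with compound alone. Antagonism was tested with compound plus 10 nM ghrelin and scored as a reduction of the ghrelin signal.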

[3] = target: T2, recombinant human ghrelin receptor (HEK293/GRLN) (Homo sapiens, UniProt Q92847); test: Ghrelin inverse agonist potency (EC50) with IP-1 (IP-One HTRF) assay; type: cell-based; details: IP-1 assay
T2 construct: expressed in transfected cells
T2 sequence (Q92847 whole entry): as above
How it was run: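 HEK293/GRLN cells were seeded 18-22 hours before the test, then exposed to compound in stimulation buffer for 1 hour at 37° C, 5% CO2. IP-1 was detected by IP-One HTRF (IP1-d2 plus Tb-cryptate, 1 hour RT), reading 620 and 665 nm; the inverse agonist EC50 was derived from this.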

[4] = Metabolic stability in rat liver microsomes; type: in vitro ADME
Procedure: (§3) Metabolic Stability Study
(§4) The metabolic stability of compounds in human, dog, rat and mouse liver microsomes was performed according the experimental conditions reported below:
(§5) • a) Prepare the following 5 stock solutions: • 1. Test compound stock solutions: dilute 10 mM solution of dextromethorphan (Dtr) in DMSO, 10 mM solution of diphenhydramine (DPA) in DMSO, 10 mM solution of omeprazole (Ome) in DMSO, 10 mM solution of verapamil (Ver) in DMSO, and 10 mM of an inverse agonist compound in DMSO to 0.25 mM solution each with acetonitrile/water (70/30). • 2. Buffer: 100 mM potassium phosphate Buffer (PBS) at pH 7.4 • 3. Liver microsomes (20 mg/ml): Thaw in 37° C. water bath quickly • 4. 2000 μL: of NADPH regenerating system (1.3 mM). Place this system on ice before use:
(§6) • 5. […] The test compound concentration in the wells, measured by LC-MS/MS, represents the concentration at time=0. • f) To determine the test compound concentration when t≠0, pre-incubate the NADPH regenerating system and the incubation plate containing the remaining 320 μL of incubation mixture (microsomes protein and test compound) for 5 minutes at 37° C. • g) Start the incubation reaction by adding 80 μL NADPH regenerating system to each well containing the remaining 320 μL incubation mixture. • h) After 10 min., 30 min., and 90 min. of incubation at 37° C., transfer 100 μL of the incubation mixture (microsomes protein, test compound, and NADPH) into the wells of a stop plate pre-filled with 300 μL of the cold quench solution. Shake well. • i) Centrifuge the stop plate at 5000×g for 10 minutes. Collect and dilute the supernatant 3 times with distilled water. Sample and analyze the test compound concentration for all the wells by LC-MS/MS. Animal PK Studies via i.v. (intravenous), p.o. (orally) and s.c. (subcutaneous) administrations

[5] = Metabolic stability in mouse liver microsomes; type: in vitro ADME
How it was run: as §1

[6] = Metabolic stability in dog liver microsomes; type: in vitro ADME
Procedure: as §3, §4, §5, §6

[7] = target: T1, GHSR-1a (HEK293/GHSR1a cell line); test: Ghrelin agonist potency (EC50) with calcium FLIPR assay; type: cell-based
How it was run: as §2

[8] = ghrelin antagonist potency, read-out: IC50 (Activity)
[9] = inverse agonist potency, read-out: EC50 (Activity)
[10] = HEK293/GHSR1a, read-out: Activity EC50/EMax: EC50 (ghrelin agonist potency)
[11] = HEK293/GHSR1a, ghrelin 10 nM, read-out: Activity IC50 (ghrelin antagonist potency)
[12] = HEK293/GRLN, read-out: Activity EC50 (ghrelin inverse agonist potency)
[13] = ghrelin agonist potency, read-out: Activity EC50/EMax
[14] = ghrelin antagonist potency, read-out: Activity IC50
[15] = ghrelin inverse agonist potency, read-out: Activity EC50

Compound	Metabolic Stability Study H = human [1]	pIC50 [2, 8]	pEC50 [3, 9]	Metabolic Stability Study R = rat [4]	Metabolic Stability Study M = mouse [5]	Metabolic Stability Study D = dog [6]	pEC50 [7, 10]	pIC50 [2, 11]	pEC50 [3, 12]	pEC50 [7, 13]	pIC50 [2, 14]	pEC50 [3, 15]
C[C@H](NC(=O)Nc1ccc(S(=O)(=O)Nc2ccc(CC(C)(C)N)cc2)cc1)c1cccc(Cl)c1Cl.Cl [H0943, (S)-N-(4-(2-amino-2-methylpropyl)phenyl)-4-(3-(1-(2,3-dichlorophenyl)ethyl)ureido) benzenesulfonamide]	10.6 µL/min/mg	8.11	8.60	11.7 µL/min/mg	< 10 µL/min/mg	< 10 µL/min/mg						
CC(NC(=O)Nc1ccc(S(=O)(=O)Cc2cc(F)c3c(c2)CCN(C)C3)cc1)c1cccc(Cl)c1Cl (stereo not drawn) [H1378, 1-(1-(2,3-dichlorophenyl)ethyl)-3-(4-(((8-fluoro-2-methyl-1,2,3,4-tetrahydroisoquinolin-6-yl)methyl)sulfonyl)phenyl)urea]	151.7 µL/min/mg				245.9 µL/min/mg	227.9 µL/min/mg	< 4.52	7.72	8.89			
C[C@@H](NC(=O)Nc1ccc(S(=O)(=O)Cc2ccc3c(c2)CNC3)cc1)c1ccccc1 [H1214, (R)-1-(4-((isoindolin-5-ylmethyl)sulfonyl)phenyl)-3-(1-phenylethyl)urea]	16.6 µL/min/mg	6.56	6.83	18 µL/min/mg	21.4 µL/min/mg	< 10 µL/min/mg						
CC(C)(N)Cc1ccc(CS(=O)(=O)c2ccc(NC(=O)NCc3cccc(Cl)c3Cl)cc2)cc1 [H0996, 1-(4-((4-(2-amino-2-methylpropyl)benzyl)sulfonyl)phenyl)-3-(2,3-dichlorobenzyl)urea]	27.5 µL/min/mg	6.34	7.19	77.8 µL/min/mg	125.4 µL/min/mg	< 10 µL/min/mg						
CC(NC(=O)Nc1ccc(S(=O)(=O)Cc2ccc3c(c2)CCNC3)cc1C(=O)O)c1cccc(Cl)c1Cl (stereo not drawn) [H1542, 2-(3-(1-(2,3-dichlorophenyl)ethyl)ureido)-5-(((1,2,3,4-tetrahydroisoquinolin-6-yl)methyl)sulfonyl)benzoic acid]	< 10 µL/min/mg			13.3 µL/min/mg						< 4.52	8.77	8.72
COc1ccccc1C(C)NC(=O)Nc1ccc(S(=O)(=O)Cc2ccc3c(c2)CNC3)cc1 (stereo not drawn) [H1382, 1-(4-((isoindolin-5-ylmethyl)sulfonyl)phenyl)-3-(1-(2-methoxyphenyl)ethyl)urea]	42.4 µL/min/mg				43.4 µL/min/mg	41.9 µL/min/mg	< 4.52	7.46	8.57			
C[C@H](NC(=O)Nc1ccc(S(=O)(=O)Cc2ccc3[nH]ccc3c2)cc1)c1cccc(Cl)c1Cl [H1142, (S)-1-(4-(((1H-indol-5-yl)methyl)sulfonyl)phenyl)-3-(1-(2,3-dichlorophenyl)ethyl)urea]	114.9 µL/min/mg		6.36	209.6 µL/min/mg	151.4 µL/min/mg							
CN(C)C(C)(C)Cc1ccc(NS(=O)(=O)c2ccc(NC(=O)NCc3cccc(Cl)c3Cl)cc2)cc1 [H0995, 4-(3-(2,3-dichlorobenzyl)ureido)-N-(4-(2-(dimethylamino)-2-methylpropyl)phenyl) benzenesulfonamide]	54.5 µL/min/mg	7.49	8.60	92.4 µL/min/mg	194.6 µL/min/mg	52.7 µL/min/mg						
CC(NC(=O)Nc1ccc(S(=O)(=O)Cc2ccc3c(c2)CC(C)N(C)C3)cc1)c1cccc(Cl)c1Cl (stereo not drawn) [H1380, 1-(1-(2,3-dichlorophenyl)ethyl)-3-(4-(((2,3-dimethyl-1,2,3,4-tetrahydroisoquinolin-6-yl)methyl)sulfonyl)phenyl)urea]	137 µL/min/mg				66.5 µL/min/mg	169.9 µL/min/mg		8.64	9.44			
COc1cc(S(=O)(=O)Cc2ccc3c(c2)C(F)CNC3)ccc1NC(=O)N[C@H](C)c1cccc(Cl)c1Cl (stereo partly drawn) [H1543, 1-((R)-1-(2,3-dichlorophenyl)ethyl)-3-(4-(((4-fluoro-1,2,3,4-tetrahydroisoquinolin-6-yl)methyl)sulfonyl)-2-methoxyphenyl)urea]	46.8 µL/min/mg			204.6 µL/min/mg						< 4.52	7.80	7.90
CC(NC(=O)Nc1ccc(S(=O)(=O)Cc2nc3c(s2)CN(C)CC3)cc1)c1cccc(Cl)c1Cl (stereo not drawn) [H1379, 1-(1-(2,3-dichlorophenyl)ethyl)-3-(4-(((5-methyl-4,5,6,7-tetrahydrothiazolo[5,4-c]pyridin-2-yl)methyl)sulfonyl)phenyl)urea]	261.6 µL/min/mg				> 500 µL/min/mg	> 500 µL/min/mg	< 4.52	7.35	8.84			
COc1cc(S(=O)(=O)Cc2ccc3c(c2)C(F)CN(C)C3)ccc1NC(=O)N[C@H](C)c1cccc(Cl)c1Cl (stereo partly drawn) [H1544, 1-((R)-1-(2,3-dichlorophenyl)ethyl)-3-(4-(((4-fluoro-2-methyl-1,2,3,4-tetrahydroisoquinolin-6-yl)methyl)sulfonyl)-2-methoxyphenyl)urea]	323.3 µL/min/mg			427.2 µL/min/mg						< 4.52	7.39	8.01
COc1ccc([C@H](C)NC(=O)Nc2ccc(S(=O)(=O)Nc3ccc(CC(C)(C)N)cc3)cc2)c(Cl)c1Cl [H0937, (S)-N-(4-(2-amino-2-methylpropyl)phenyl)-4-(3-(1-(2,3-dichloro-4-methoxyphenyl)ethyl)ureido) benzenesulfonamide]	H = <10 M = <10 R = <10 D = <10 μL/min/mg	7.08	7.90	H = <10 M = <10 R = <10 D = <10 μL/min/mg	H = <10 M = <10 R = <10 D = <10 μL/min/mg	H = <10 M = <10 R = <10 D = <10 μL/min/mg						
